{"source": "patent US20230151065A1", "about": "“MULTI-DISULFIDE-BOND LONG-CHAIN PEPTIDE WITH NEURO[…], PHARMACEUTICAL COMPOSITION AND APPLICATION” (priority 2018, published 2023)", "key": {"[1]": {"test_system": "primary cultured hippocampal neurons damaged by NMDA", "test": "NMDA damage of primary cultured hippocampal neurons, MTT viability", "type": "cell-based, SD (Sprague-Dawley) rat", "conditions": "for hippocampal neuron activity after NMDA damage (MTT): MK801 10 μM", "source_text": "(1) Establishment of NMDA damage model. Primary culture of hippocampal neurons: SD (Sprague-Dawley) female rats pregnant for 18-19 days were anesthetized with a compound anaesthetic agent; fetal rat brains were taken under aseptic conditions and placed in HBSS solution (8.4 g/L of NaCl, 0.224 g/L of KCl, 2.38 g/L of HEPES, 500,000 units of penicillin sodium and 500,000 units of kanamycin sulfate; the pH was adjusted to 7.1-7.2 with 1M NaOH; then the osmotic pressure was adjusted to about 290±10 m Osm with ultrapure water; and after filtration, the solution was stored at 4° C.); the meninges were removed under a stereoscopic dissecting microscope; the bilateral hippocampus was removed and digested in 0.125% pancreatic protease at 37° C. for 10 min; and complete media (90% DMEM medium+10% FBS) (FBS: fetal bovine serum) was used to terminate the digestion; the bilateral hippocampus was washed for 3 times with the complete media to make a single cell suspension; the cell density was adjusted to about 7-8×10^5/ml; and the bilateral hippocampus was inoculated to a 6-well/96-well cell culture plate/60 mm culture dish/slide coated with L-polylysine. After 24 hours, the media were changed to serum-free neurobasal media (GIBCO) which were then placed in a 5% CO2, 37° C. incubator for culture; and half of the solution was changed every three days.\n(2) NMDA damage treatment of hippocampal neurons: (1) The original media were sucked out and the cells were washed with magnesium-free extracellular fluid for three times, each for 5 minutes. (2) 10 mM NMDA (N-methyl-D-aspartic acid) and 10 mM Gly (glycine) were prepared with magnesium-free extracellular fluid, and NMDA was prepared to different concentrations with the magnesium-free extracellular fluid, wherein the final concentration of Gly was 10 μM. […] After damage, the cells were washed for three times with DMEM medium, each for 5 minutes. (3) The original culture media were re-added to continue for culturing for 24 hours.\n(3) Detection of viability of hippocampal neurons after NMDA damage: (1) The hippocampal neurons were inoculated into a 96-well culture plate at 8×10^5 cells/ml, 0.1 ml per well, and cultured in a 5% CO2 incubator for 7-8 days. (2) After NMDA damage treatment and continuous culture for 24 hours, the culture solution was sucked off. (3) 100 μl of DMEM culture medium containing MTT (3-(4,5-dimethylthiazole-2)-2,5-diphenyltetrazolium bromide, 0.5 mg/ml) was added to each well, and the culture plate was put into 37° C., 5% CO2 incubator for culturing for 4 h. (4) 100 μl of 20% SDS was added to each well (20 g of sodium lauryl sulfate was dissolved in 50 ml of ddH2O+50 ml of N,N dimethylformamide) at 37° C. for 20 h. (5) The solution was shaken on a horizontal shaker for 5 min. (6) The optical density (OD) was measured at 570 nm (reference wavelength of 490 nm) on a microplate reader.\n(6) Effect of ABPPk2 on decrease of hippocampal neuron activity caused by NMDA. Effect of different concentrations of ABPPk2 on hippocampal neuron damage caused by NMDA (100 μM, 30 min). The experiment was divided into 9 experimental groups: a normal group, NMDA (100 μM, 30 min) group (as a control group), ABPPk2 (0.01 μg/ml) group, ABPPk2 (0.1 μg/ml) group, ABPPk2 (0.3 μg/ml) group, ABPPk2 (1 μg/ml) group, ABPPk2 (3 μg/ml) group, ABPPk2 (10 μg/ml) group and MK801 (dizocilpine, 10 μM) group (as a positive control group). Three administration ways were adopted for ABPPk2: (1) ABPPk2 was administered 12 hours before and during the NMDA damage. (2) ABPPk2 was administered during NMDA damage. (3) ABPPk2 was administered during 24 hours of culture after NMDA damage."}, "[2]": {"test_system": "primary cultured hippocampal neurons", "test": "Synapse formation in hippocampal neurons (SYN/PSD95 staining, PSD95 Western blot)", "type": "cell-based, rat", "conditions": "treatment with ABPPk2 for 8 d", "experimental": "(1) Primary culture of fetal rat hippocampal neurons: after a rat pregnant for 17 days was anesthetized, a fetal rat was taken out under sterile conditions; the brain of the fetal rat was taken out on ice; the hippocampus was carefully taken out under a dissecting microscope; and the blood vessel membranes were removed. 0.125% trypsin/EDTA was digested at 37° C. for 10 min, and the digestion was stopped by adding the DMEM complete medium containing 10% FBS. Cell debris were removed through centrifugal at 1000 rpm for 5 min; the DMEM complete medium was added to resuspend the cells; the cells were gently blown until a single cell suspension was formed; and the cells were inoculated at an appropriate density on a culture plate (dish) pre-coated with polylysine (PLL) and cultured at 37° C., 5% CO2 incubator. […]\n(7) Promotion effect of ABPPk2 on synapse formation in primary cultured hippocampal neurons. […] The field of view was randomly selected and photographed under the laser confocal microscope, and the number of synaptic cristulas on every 100 μm neurites was counted. The effect of ABPPk2 on the expression of PSD95 was analyzed by Western blot. The steps were as follows: the total protein was extracted and the total protein concentration was determined by Bradford method. […]"}}, "note": "Where no end group is shown, it is not given here.", "data": [{"substance": "Cys-Leu-Glu-Ser-Gly-Thr-Ser-Cys-Ile-Pro-Gly-Ala-Gln-His-Asn-Cys-Cys-Ser-Gly-Val-Cys-Val-Pro-Ile-Val-Thr-Ile-Phe-Tyr-Gly-Val-Cys-Tyr (CLESGTSCIPGAQHNCCSGVCVPIVTIFYGVCY; disulfide (positions not given here); not fully specified (bridges); also: three disulfide bonds, pairing not given here) [ABPPk2, 33 amino acid polypeptide isolated from the extract of Achyranthes bidentata Blume, three pairs of disulfide bonds]", "values": [{"measurement": "hippocampal neuron activity after NMDA damage (MTT)", "setting": "[1]; given 12 h before and during NMDA (100 μM, 0.5 h), ABPPk2 0.1, 0.3 and 1 μg/ml groups", "result": "can effectively reduce the decrease of hippocampal neuron activity caused by NMDA damage"}, {"measurement": "hippocampal neuron activity after NMDA damage (MTT)", "setting": "[1]; given during 24 h culture after NMDA damage (100 μM, 0.5 h), ABPPk2 0.1-10 μg/ml", "result": "can effectively reduce the decrease of hippocampal neuron activity caused by NMDA damage"}, {"measurement": "hippocampal neuron activity after NMDA damage (MTT)", "setting": "[1]; given during NMDA damage (100 μM, 0.5 h), ABPPk2 1 and 10 μg/ml groups", "result": "can effectively reduce the decrease of hippocampal neuron activity caused by NMDA damage"}, {"measurement": "protective effect on NMDA damage of primary hippocampal neurons", "setting": "[1]; overall statement, experimental solution of embodiment 6, concentration and administration way not stated", "result": "has a protective effect on the damage of primary cultured hippocampal neurons induced by NMDA"}, {"measurement": "number of the formed synapses", "setting": "[2]", "result": "the number of the formed synapses can be significantly increased"}, {"measurement": "expression of PSD95 protein", "setting": "[2]; Western blot", "result": "up-regulated"}]}]}
